Test results as given in ChEMBL document CHEMBL1125324, “Development of a novel class of cyclic hexapeptide oxytocin antagonists based on a natural product” (J Med Chem, 1992).
≈ marks a conversion by molar mass, not a printed value. *1 amine or outer side, *2 acyl side, *3 side chain or, on linkers, in order; H or OH if unused. Where a SMILES comes first, the peptide text is derived from it. [ ]: non-standard residue; d: D form. X1 = C=CCN([C@H](Cc1ccccc1)C(=O)[*:2])[*:1]; Piz(1,6-dehydro) = O=C(O)[C@@H]1CCC=NN1; dPiz(1,6-dehydro) = O=C(O)[C@H]1CCC=NN1; d1Nal = N[C@H](Cc1cccc2ccccc12)C(=O)O; d2Nal = N[C@H](Cc1ccc2ccccc2c1)C(=O)O; dNMeH = CN[C@H](Cc1c[nH]cn1)C(=O)O; dNMeF = CN[C@H](Cc1ccccc1)C(=O)O; Pip = O=C(O)[C@@H]1CCCCN1; dPip = O=C(O)[C@H]1CCCCN1; NMeA = CN[C@@H](C)C(=O)O; Nle = CCCC[C@H](N)C(=O)O; Orn = NCCC[C@H](N)C(=O)O; dNMeA = CN[C@H](C)C(=O)O

Key:
Oxytocin receptor = target: T1, Oxytocin receptor (Rattus norvegicus, UniProt P70536); test: Concentration required to displace 50% of [3H]oxytocin from rat uterine receptor.
T1 sequence (P70536 whole entry): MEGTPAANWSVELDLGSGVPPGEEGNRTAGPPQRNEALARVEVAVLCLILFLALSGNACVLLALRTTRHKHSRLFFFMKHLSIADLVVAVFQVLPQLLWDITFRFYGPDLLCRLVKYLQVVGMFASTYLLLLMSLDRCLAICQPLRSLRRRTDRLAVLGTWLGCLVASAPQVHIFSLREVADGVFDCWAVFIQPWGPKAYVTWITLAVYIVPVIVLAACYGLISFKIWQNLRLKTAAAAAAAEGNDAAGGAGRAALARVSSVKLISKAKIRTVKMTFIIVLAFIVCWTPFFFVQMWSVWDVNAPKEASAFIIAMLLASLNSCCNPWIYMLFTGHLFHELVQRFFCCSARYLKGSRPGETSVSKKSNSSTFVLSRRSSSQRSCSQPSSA

Vasopressin V2 receptor = Vasopressin V2 receptor (Rattus norvegicus, UniProt Q00788); test: Inhibition of [3H]arginine vasopressin binding to AVP-V2 site in rat kidney medulla.; assay type: tissue-based
Vasopressin V1a receptor = Vasopressin V1a receptor (Rattus norvegicus, UniProt P30560); test: Concentration required to displace 50% of [3H]arginine vasopressin from rat liver arginine vasopressin 1A (AVP-V1a) site.
[1] = target: Vasopressin V1a receptor (Rattus norvegicus) (UniProt P30560); test: Displacement of [3H]arginine vasopressin from rat liver (AVP-V1a site) at 10 uM
[2] = target: Vasopressin V2 receptor (Rattus norvegicus) (UniProt Q00788); test: Displacement of [3H]arginine vasopressin from rat kidney medullary (AVP-V2 site) at 10 uM; assay type: tissue-based
[3] = Aqueous solubility was determined; assay type: physicochemical
Rattus norvegicus = test: Dose required for 50% reduction of the contractile response of the uterus to OT (1 ug/kg, iv bolus) in DES-pretreated rats; assay type: functional

Sequence of Vasopressin V2 receptor (Rattus norvegicus) (Q00788 whole entry): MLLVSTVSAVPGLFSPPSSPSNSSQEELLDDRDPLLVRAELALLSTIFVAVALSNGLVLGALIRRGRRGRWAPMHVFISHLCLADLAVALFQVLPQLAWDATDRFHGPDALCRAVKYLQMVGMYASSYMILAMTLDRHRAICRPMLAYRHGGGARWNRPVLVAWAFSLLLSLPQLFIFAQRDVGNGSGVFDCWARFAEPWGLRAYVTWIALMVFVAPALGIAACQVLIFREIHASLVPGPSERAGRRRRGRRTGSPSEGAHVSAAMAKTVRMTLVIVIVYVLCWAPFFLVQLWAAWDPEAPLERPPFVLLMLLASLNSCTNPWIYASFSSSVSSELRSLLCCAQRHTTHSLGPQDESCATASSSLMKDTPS
Sequence of Vasopressin V2 receptor (Q00788 whole entry): as above
Sequence of Vasopressin V1a receptor (Rattus norvegicus) (P30560 whole entry, looked up): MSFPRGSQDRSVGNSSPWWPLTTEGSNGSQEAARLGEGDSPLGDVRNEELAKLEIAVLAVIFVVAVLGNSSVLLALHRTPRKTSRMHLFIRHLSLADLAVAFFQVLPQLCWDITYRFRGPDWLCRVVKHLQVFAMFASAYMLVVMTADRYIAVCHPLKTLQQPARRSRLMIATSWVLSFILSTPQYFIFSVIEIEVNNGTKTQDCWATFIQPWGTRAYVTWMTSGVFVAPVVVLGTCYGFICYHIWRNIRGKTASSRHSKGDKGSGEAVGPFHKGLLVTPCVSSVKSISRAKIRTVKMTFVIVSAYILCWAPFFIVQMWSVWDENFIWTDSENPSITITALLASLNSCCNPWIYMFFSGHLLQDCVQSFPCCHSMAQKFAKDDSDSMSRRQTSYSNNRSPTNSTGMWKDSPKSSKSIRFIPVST
Sequence of Vasopressin V1a receptor (P30560 whole entry): as the sequence (P30560 whole entry, looked up) above

| SMILES | IC50 (Oxytocin receptor) [nM] | IC50 (Vasopressin V2 receptor) [nM] | IC50 (Vasopressin V1a receptor) [nM] | inhibition [1] [%] | inhibition [2] [%] | also measured |
| --- | --- | --- | --- | --- | --- | --- |
| CC[C@H](C)[C@@H]1NC(=O)[C@@H](Cc2ccccc2)NC(=O)[C@@H]2CCCN2C(=O)[C@@H](Cc2ccccc2)N(C)C(=O)[C@H](C)N(C)C(=O)[C@H]2CCCCN2C1=O | 2700 | – | – | – | – | – |
| CC[C@H](C)[C@@H]1NC(=O)[C@@H](Cc2ccccc2)NC(=O)[C@@H]2CCCN2C(=O)[C@@H](Cc2ccccc2)N(C)C(=O)[C@H](CCCCN)NC(=O)[C@H]2CCCCN2C1=O | 160 | 1400 | 2000 | – | – | – |
| CC[C@H](C)[C@@H]1NC(=O)[C@@H](Cc2ccccc2)NC(=O)[C@@H]2CCCN2C(=O)[C@@H](Cc2ccccc2)N(C)C(=O)[C@H](Cc2cnc[nH]2)NC(=O)[C@H]2CCCCN2C1=O | 220 | – | – | – | – | – |
| CC[C@H](C)[C@@H]1NC(=O)[C@@H](Cc2cccc3ccccc23)NC(=O)[C@@H]2CCCN2C(=O)[C@@H](Cc2ccccc2)N(C)C(=O)[C@H](CCCCN)NC(=O)[C@H]2CCCCN2C1=O | 45 | 150 | 510 | – | – | – |
| CC[C@H](C)[C@@H]1NC(=O)[C@@H](Cc2ccccc2)NC(=O)[C@@H]2CCCN2C(=O)[C@H](Cc2ccccc2)N(C)C(=O)[C@H](C)N(C)C(=O)[C@H]2CCCCN2C1=O | – | – | – | 25 | 34 | – |
| CC[C@H](C)[C@@H]1NC(=O)[C@@H](Cc2ccccc2)NC(=O)[C@@H]2CCCN2C(=O)[C@@H](Cc2ccccc2)N(C)C(=O)[C@H](CC(=O)O)NC(=O)[C@H]2CCCCN2C1=O (cyclo(D[dNMeF]P[dF]I[dPip])) | 1500 | – | – | 0 | 12 | – |
| CC[C@H](C)[C@@H]1NC(=O)[C@@H](Cc2ccccc2)NC(=O)[C@@H]2CCCN2C(=O)[C@@H](Cc2ccccc2)N(C)C(=O)[C@@H]2CCCCN2C(=O)[C@@H](C)N(C)C1=O (cyclo(I[dNMeA][Pip][dNMeF]P[dF])) | 1500 | – | – | 20 | 17 | – |
| CC[C@H](C)[C@@H]1NC(=O)[C@@H](Cc2ccc3ccccc3c2)NC(=O)[C@@H]2CCCN2C(=O)[C@@H](Cc2ccccc2)N(C)C(=O)[C@H](CCCCN)NC(=O)[C@H]2CCCCN2C1=O (cyclo(I[dPip]K[dNMeF]P[d2Nal])) | 13 | 110 | 1300 | – | – | solubility [3]: 1700 µg/mL (≈ 2100 µM) |
| CC[C@H](C)[C@@H]1NC(=O)[C@@H](Cc2c[nH]c3ccccc23)NC(=O)[C@@H]2CCCN2C(=O)[C@@H](Cc2c[nH]cn2)NC(=O)[C@@H]2CCCCN2C(=O)[C@H]2CCCCN2C1=O (cyclo(I[dPip][Pip][dH]P[dW])) | – | – | – | – | – | AD50 (Rattus norvegicus): 1.3 µg/kg |
| CC[C@H](C)[C@@H]1NC(=O)[C@@H](Cc2ccccc2)NC(=O)[C@@H]2CCCN2C(=O)[C@@H](CCCCN)NC(=O)[C@@H]2CCCCN2C(=O)[C@H]2CCCCN2C1=O (cyclo(I[dPip][Pip][dK]P[dF])) | 410 | 7400 | 1100 | – | – | – |
| CC[C@H](C)[C@@H]1NC(=O)[C@@H](Cc2ccccc2)NC(=O)[C@@H]2CCCN2C(=O)[C@@H](Cc2ccccc2)N(C)C(=O)[C@@H]2CCCCN2C(=O)[C@H]2CCCCN2C1=O (cyclo(I[dPip][Pip][dNMeF]P[dF])) | 200 | 3800 | 3200 | – | – | – |
| CC[C@H](C)[C@@H]1NC(=O)[C@@H](Cc2c[nH]c3ccccc23)NC(=O)[C@@H]2CCCN2C(=O)[C@@H](Cc2ccccc2)N(C)C(=O)[C@H](CCCN)NC(=O)[C@H]2CCC=NN2C1=O (cyclo(I[dPiz(1,6-dehydro)][Orn][dNMeF]P[dW])) | 25 | – | – | – | – | – |
| CC[C@H](C)[C@@H]1NC(=O)[C@@H](Cc2ccccc2)NC(=O)[C@@H]2CCCN2C(=O)[C@@H](Cc2ccccc2)N(C)C(=O)[C@@H]2CCCCN2C(=O)[C@H]2CCC=NN2C1=O (cyclo(I[dPiz(1,6-dehydro)][Pip][dNMeF]P[dF])) | 15 | 1200 | 3500 | – | – | – |
| CC[C@H](C)[C@@H]1NC(=O)[C@@H](Cc2ccccc2)NC(=O)[C@@H]2CCCN2C(=O)[C@@H](Cc2ccccc2)N(C)C(=O)[C@@H]2CCC=NN2C(=O)[C@H]2CCC=NN2C1=O (cyclo(I[dPiz(1,6-dehydro)][Piz(1,6-dehydro)][dNMeF]P[dF])) | 18 | – | – | – | – | – |

The next lines start with results.

| IC50 (Oxytocin receptor) [nM] | IC50 (Vasopressin V2 receptor) [nM] | IC50 (Vasopressin V1a receptor) [nM] | inhibition [1] [%] | inhibition [2] [%] | SMILES | also measured |
| --- | --- | --- | --- | --- | --- | --- |
| 10 | 1300 | 3700 | – | – | CC[C@H](C)[C@@H]1NC(=O)[C@@H](Cc2cn(C)c3ccccc23)NC(=O)[C@@H]2CCCN2C(=O)[C@@H](Cc2cnc[nH]2)NC(=O)[C@@H]2CCCCN2C(=O)[C@H]2CCCCN2C1=O | – |
| 30000 | – | – | – | – | C[C@@H]1NC(=O)[C@@H](Cc2ccccc2)NC(=O)[C@@H]2CCCN2C(=O)[C@@H](Cc2ccccc2)N(C)C(=O)[C@@H]2CCCCN2C(=O)[C@H]2CCCCN2C1=O | – |
| 25000 | – | – | 18 | 19 | CC[C@H](C)[C@H]1C(=O)N2CCCC[C@@H]2C(=O)N2CCCC[C@H]2C(=O)N(C)[C@H](Cc2ccccc2)C(=O)N2CCC[C@H]2C(=O)N[C@H](Cc2ccccc2)C(=O)N1C | – |
| 670 | – | – | 33 | 39 | CC[C@H](C)[C@@H]1NC(=O)[C@@H](Cc2ccccc2)NC(=O)[C@@H]2CCCN2C(=O)[C@@H](Cc2ccccc2)N(C)C(=O)[C@@H]2CCCN2C(=O)[C@H]2CCCCN2C1=O | – |
| – | – | – | 51 | 48 | CC[C@H](C)[C@@H]1NC(=O)[C@@H](Cc2ccccc2)NC(=O)[C@@H]2CCCCN2C(=O)[C@@H](Cc2ccccc2)N(C)C(=O)[C@@H]2CCCCN2C(=O)[C@H]2CCCCN2C1=O | – |
| – | – | – | 66 | 65 | CC[C@H](C)[C@@H]1NC(=O)[C@@H](Cc2ccccc2)NC(=O)[C@@H]2CCCN2C(=O)[C@@H](Cc2ccccc2)N(C)C(=O)[C@H](Cc2c[nH]cn2)NC(=O)[C@H]2CCCCN2C1=O | – |
| – | – | – | 3 | 2 | C[C@@H]1NC(=O)[C@@H](Cc2ccccc2)NC(=O)[C@@H]2CCCN2C(=O)[C@H](Cc2ccccc2)N(C)C(=O)[C@@H]2CCCCN2C(=O)[C@H]2CCCCN2C1=O | – |
| 540 | – | – | 23 | 43 | CC[C@H](C)[C@@H]1NC(=O)[C@@H](Cc2ccccc2)NC(=O)[C@@H]2CCCN2C(=O)[C@@H](Cc2ccccc2)N(C)C(=O)[C@@H]2CCCCN2C(=O)[C@H]2CCCN2C1=O (cyclo(I[dP][Pip][dNMeF]P[dF])) | – |
| 190 | – | – | 45 | 77 | C=CCN1C(=O)[C@@H]2CCCCN2C(=O)[C@H]2CCCCN2C(=O)[C@H]([C@@H](C)CC)NC(=O)[C@@H](Cc2ccccc2)NC(=O)[C@@H]2CCCN2C(=O)[C@H]1Cc1ccccc1 (cyclo(I[dPip][Pip][X1]P[dF])) | – |
| 340 | 11000 | – | – | – | CC[C@H](C)[C@@H]1NC(=O)[C@@H](Cc2ccccc2)NC(=O)[C@@H]2CCCN2C(=O)[C@@H](Cc2ccccc2)NC(=O)[C@@H]2CCCCN2C(=O)[C@H]2CCCCN2C1=O (cyclo(I[dPip][Pip][dF]P[dF])) | – |
| 8.3 | 720 | 750 | – | – | CC[C@H](C)[C@@H]1NC(=O)[C@@H](Cc2cccc3ccccc23)NC(=O)[C@@H]2CCCN2C(=O)[C@@H](Cc2cnc[nH]2)NC(=O)[C@@H]2CCCCN2C(=O)[C@H]2CCCCN2C1=O (cyclo(I[dPip][Pip][dH]P[d1Nal])) | – |
| 1200 | – | – | 20 | 12 | CC[C@H](C)[C@@H]1NC(=O)[C@@H](Cc2ccccc2)NC(=O)[C@@H]2CCCN2C(=O)[C@@H](C)N(C)C(=O)[C@@H]2CCCCN2C(=O)[C@H]2CCCCN2C1=O (cyclo(I[dPip][Pip][dNMeA]P[dF])) | – |
| 930 | – | – | 34 | 37 | CC[C@H](C)[C@@H]1NC(=O)[C@@H](Cc2ccccc2)NC(=O)[C@H](C)N(C)C(=O)[C@@H](Cc2ccccc2)N(C)C(=O)[C@@H]2CCCCN2C(=O)[C@H]2CCCCN2C1=O (cyclo(I[dPip][Pip][dNMeF][NMeA][dF])) | – |
| – | – | 14000 | – | – | CC[C@H](C)[C@@H]1NC(=O)[C@@H](Cc2c[nH]c3ccccc23)NC(=O)[C@@H]2CCCN2C(=O)[C@@H](Cc2c[nH]cn2)N(C)C(=O)[C@@H]2CCCCN2C(=O)[C@H]2CCCCN2C1=O (cyclo(I[dPip][Pip][dNMeH]P[dW])) | – |
| – | 11000 | 3000 | – | – | CC(C)C[C@@H]1NC(=O)[C@@H](Cc2c[nH]c3ccccc23)NC(=O)[C@@H]2CCCN2C(=O)[C@@H](Cc2c[nH]cn2)NC(=O)[C@@H]2CCCCN2C(=O)[C@H]2CCCCN2C1=O (cyclo(L[dPip][Pip][dH]P[dW])) | – |
| – | 1700 | 1300 | – | – | CCCC[C@@H]1NC(=O)[C@@H](Cc2c[nH]c3ccccc23)NC(=O)[C@@H]2CCCN2C(=O)[C@@H](Cc2c[nH]cn2)NC(=O)[C@@H]2CCCCN2C(=O)[C@H]2CCCCN2C1=O (cyclo([Nle][dPip][Pip][dH]P[dW])) | – |
| – | 81000 | 3300 | – | – | CC[C@H](C)[C@@H]1NC(=O)[C@@H](Cc2ccccc2)NC(=O)[C@@H]2CCCN2C(=O)[C@@H](Cc2ccccc2)N(C)C(=O)[C@@H]2CCCN2C(=O)[C@H]2CCCN2C1=O (cyclo([dNMeF]P[dF]I[dP]P)) | – |
